{
  "source": "patent US12371456B2",
  "about": "“Proteins for the treatment of epithelial barrier function disorders” (Genevive, Inc., priority 2017, dated 2025)",
  "key": {"[1]": {"test_system": "DSS model of inflammatory bowel disease", "test": "DSS model: colon length and colon weight to length ratio", "format": "in vivo, C57BL/6 mice", "conditions": "DSS treated mice", "method": "Eight-week old C57BL/6 mice were housed 5 animals were cage and given food and water ad libitum for 7 days. Following the 7-day acclimation period, treatments were initiated concurrently with addition of 2.5% DSS to the drinking water. […] The mice were treated with 2.5% dextran sodium sulfate (DSS) in their drinking water for 6 days. Treatments were continued with SG-14 or […]-GLP2 twice a day (b.i.d.) in the morning and evening (every 8 and 16 hr) with i.p. injections at 50 nmoles/kg. Fresh 2.5% DSS drinking water was prepared every 2 days. Colon length was measured in mice included in the DSS model described in Example 7. […] The graphs in FIG. 10 and FIG. 11 represent data pooled from the single experiment (n=10)."}, "[2]": {"test_system": "HCT8 enterocytes and HT29-MTX goblet cells (epithelial monolayer) co-cultured with U937 monocytes", "test": "Co-culture trans-epithelial electrical resistance (TEER) assay, barrier disruption by heat killed E. coli", "format": "cell-based, human", "conditions": "staurosporine 100 nM, negative control", "experimental": "Assays were performed as described below in trans-well plates where co-cultures of multiple cell types were performed utilizing a permeable membrane to separate cells. In the apical (top) chamber, human colonic epithelial cells, consisting of a mixture of enterocytes and goblet cells, were cultured until cells obtained tight junction formation and barrier function capacity as assessed by measurement of trans-epithelial electrical resistance (TEER). In the basolateral chamber, monocytes were cultured separately. Epithelial cells were primed with inflammatory cytokines.\nCell culture. The HCT8 human enterocyte cell line (ATCC Cat. No. CCL-244) was maintained in RPMI-1640 medium supplemented with 10% fetal bovine serum, 100 IU/ml penicillin, 100 µg/ml streptomycin, 10 µg/ml gentamicin and 0.25 µg/ml amphotericin (cRPMI). HT29-MTX human goblet cells (Sigma-Aldrich (St. Louis, MO; Cat. No. 12040401) were maintained in DMEM medium with 10% fetal bovine serum, 100 IU/ml penicillin, 100 µg/ml streptomycin, 10 µg/ml gentamicin and 0.25 µg/ml amphotericin (cDMEM). Epithelial cells were passaged by trypsinization and were used between 5 and 15 passages following thawing from liquid nitrogen stocks. U937 monocytes (ATCC Cat. No. 700928) were maintained in cRPMI medium as a suspension culture, and split by dilution as needed to maintain cells between 5×10^5 and 2×10^6 cells/ml. U937 cells were used up to passage 18 following thawing from liquid nitrogen stocks.\nEpithelial cell culture. A mixture of HCT8 enterocytes and HT29-MTX goblet cells were plated at a 9:1 ratio, respectively, in the apical chamber of the transwell plate as described previously (Berget et al., 2017, Int J Mol Sci, 18:1573; Beduneau et al., 2014, Eur J Pharm Biopharm, 87:290-298). […] Epithelial cells were trypsinized from culture flasks and viable cells determined by trypan blue counting. […]\nCo-culture assay. […] Trans-epithelial electrical resistance (TEER) readings were measured after the IFN-γ treatment and were used as the pre-treatment TEER values. […]"}, "[3]": {"test_system": "HCT8 enterocyte and HT29-MTX goblet cell lines", "test": "Oris Cell Migration assay (epithelial cell wound healing)", "format": "cell-based, human", "conditions": "48 hours; SG-14 1 μg/ml, EGF 30 ng/ml, staurosporine 100 nM; FIG. 5", "excerpt": "The 96 well Oris Cell Migration assay containing plugs preventing cell attachment in the center of each well was used according to the manufacturer's instructions (Platypus Technologies, Madison, WI). The migration assay plates were warmed to room temperature prior to use and plugs were removed from 100% confluence wells prior to cell addition. The HCT8 enterocyte and HT29-MTX goblet cell lines were used at a 9:1 ratio with a total of 5×10^4 total cells added per well (4.5×10^4 HCT8 cells and 0.5×10^4 HT29-MTX cells). Cells were incubated at 37° C.+5% CO2 for 24 hours. Plugs were then removed from all control and sample wells. Control wells included cells treated with the diluent vehicle as the blank, 30 ng/ml epidermal growth factor (EGF) as the positive control, and 100 nM staurosporine as the negative control, all diluted in cRPMI. Sample wells contained SG-14 protein at a concentration of 1 μg/ml diluted in cRPMI. 100% and 0% wells were cultured in cRPMI. […] The green fluorescent viability dye […] was added to all wells at a concentration of […] in PBS containing 0.9 mM CaCl2) and 0.5 mM MgCl2, incubated for 30 min at 37° C.+5% CO2, the dye was removed and cells were washed in PBS containing 0.9 mM CaCl2) and 0.5 mM MgCl2 and fluorescence was measured. […] Samples were normalized between 100% and 0% samples and values expressed as a percent growth."}, "[4]": {"set-up": "species or system mice", "conditions": "mouse, in vivo, ip"}},
  "data": [
    {"compound": "Gly2-GLP2: a stable analog of glucagon-like peptide 2 (GLP2); positive control in DSS model (HGDGSFSDEMNTILDNLAARDFINWLIQTKITD; Glucagon-like peptide 2; UniProt P01275 146-178, looked up, variant A2G) [reference compound]", "values": [
      {"measurement": "Colon length", "setting": "[1]; FIG. 10", "result": "significant improvement in colon length"},
      {"measurement": "Ratio between colon weight and length", "setting": "[1]; FIG. 11", "result": "significant reduction"}
    ]},
    {"compound": "CN[C@@H]1C[C@H]2O[C@@](C)([C@@H]1OC)n1c3ccccc3c3c4c(c5c6ccccc6n2c5c31)C(=O)NC4", "note": "[staurosporine, reference compound]", "values": [
      {"measurement": "Effect on TEER (control compound)", "setting": "[2]", "result": "drastic decrease in TEER"},
      {"measurement": "Wound healing (percent growth)", "setting": "[3]", "result": "suppressing cell proliferation"}
    ]},
    {"compound": "fluorescently labeled bovine serum albumin: fluorescently labeled bovine serum albumin used for tracking after i.p. injection", "values": [
      {"measurement": "Time at which protein reached the colon after i.p. delivery", "setting": "[4]", "result": 6, "unit": "h"}
    ]},
    {"compound": "EGF: epidermal growth factor, positive control in wound healing assay", "values": [
      {"measurement": "Wound healing (percent growth)", "setting": "[3]", "result": "increasing proliferation"}
    ]}
  ]
}
